Data published in ChEMBL document CHEMBL3991601, “The target landscape of clinical kinase drugs” (Science, 2017).
Calls of active or inactive are those of the source. For most assays here, no stated cut-off is given here; in the data, actives have a measured Kd and inactives only a lower limit.

Key:
[1] = biological target: T1, Peroxisomal acyl-coenzyme A oxidase 1 (Homo sapiens, UniProt Q15067)
T1 sequence (Q15067 whole entry): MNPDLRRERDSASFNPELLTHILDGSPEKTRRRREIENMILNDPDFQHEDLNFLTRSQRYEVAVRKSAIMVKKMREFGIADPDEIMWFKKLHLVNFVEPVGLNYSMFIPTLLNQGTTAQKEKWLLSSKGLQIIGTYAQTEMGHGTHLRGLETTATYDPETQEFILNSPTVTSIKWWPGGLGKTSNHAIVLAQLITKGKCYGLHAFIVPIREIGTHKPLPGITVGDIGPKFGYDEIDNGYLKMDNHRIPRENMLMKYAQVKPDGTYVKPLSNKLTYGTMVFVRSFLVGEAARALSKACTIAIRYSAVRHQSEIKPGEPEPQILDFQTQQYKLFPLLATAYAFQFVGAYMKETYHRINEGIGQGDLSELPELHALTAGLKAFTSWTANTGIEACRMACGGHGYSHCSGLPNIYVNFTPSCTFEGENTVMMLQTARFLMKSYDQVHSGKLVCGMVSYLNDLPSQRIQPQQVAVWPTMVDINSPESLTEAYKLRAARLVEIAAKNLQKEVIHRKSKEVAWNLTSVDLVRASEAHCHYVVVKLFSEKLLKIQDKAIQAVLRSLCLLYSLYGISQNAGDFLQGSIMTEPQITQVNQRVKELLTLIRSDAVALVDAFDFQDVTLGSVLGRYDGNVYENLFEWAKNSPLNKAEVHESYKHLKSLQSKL

[2] = biological target: Aurora kinase B (Homo sapiens, UniProt Q96GD4)
Sequence of Aurora kinase B (Q96GD4 whole entry): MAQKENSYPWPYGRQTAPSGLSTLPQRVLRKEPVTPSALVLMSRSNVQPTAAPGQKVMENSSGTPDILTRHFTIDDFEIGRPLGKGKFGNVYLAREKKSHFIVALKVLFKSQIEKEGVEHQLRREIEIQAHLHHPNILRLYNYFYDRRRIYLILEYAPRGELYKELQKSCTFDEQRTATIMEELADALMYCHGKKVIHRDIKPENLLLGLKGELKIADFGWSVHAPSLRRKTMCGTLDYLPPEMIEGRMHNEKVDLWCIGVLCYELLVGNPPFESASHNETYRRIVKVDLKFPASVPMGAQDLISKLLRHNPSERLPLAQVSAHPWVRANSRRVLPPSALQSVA

[3] = biological target: Cyclin-dependent kinase 6 (Homo sapiens, UniProt Q00534)
Sequence of Cyclin-dependent kinase 6 (Q00534 whole entry): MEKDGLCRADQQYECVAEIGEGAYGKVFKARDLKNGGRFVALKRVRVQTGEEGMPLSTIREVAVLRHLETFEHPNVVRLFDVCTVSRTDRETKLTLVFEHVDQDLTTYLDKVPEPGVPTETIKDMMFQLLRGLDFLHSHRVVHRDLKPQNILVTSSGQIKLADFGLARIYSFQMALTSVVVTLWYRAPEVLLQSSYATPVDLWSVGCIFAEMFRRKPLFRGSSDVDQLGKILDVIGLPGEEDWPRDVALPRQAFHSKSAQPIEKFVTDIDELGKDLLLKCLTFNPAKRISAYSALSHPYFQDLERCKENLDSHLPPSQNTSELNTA

[4] = biological target: Dual specificity protein kinase CLK1 (Homo sapiens, UniProt P49759)
Sequence of Dual specificity protein kinase CLK1 (P49759 whole entry): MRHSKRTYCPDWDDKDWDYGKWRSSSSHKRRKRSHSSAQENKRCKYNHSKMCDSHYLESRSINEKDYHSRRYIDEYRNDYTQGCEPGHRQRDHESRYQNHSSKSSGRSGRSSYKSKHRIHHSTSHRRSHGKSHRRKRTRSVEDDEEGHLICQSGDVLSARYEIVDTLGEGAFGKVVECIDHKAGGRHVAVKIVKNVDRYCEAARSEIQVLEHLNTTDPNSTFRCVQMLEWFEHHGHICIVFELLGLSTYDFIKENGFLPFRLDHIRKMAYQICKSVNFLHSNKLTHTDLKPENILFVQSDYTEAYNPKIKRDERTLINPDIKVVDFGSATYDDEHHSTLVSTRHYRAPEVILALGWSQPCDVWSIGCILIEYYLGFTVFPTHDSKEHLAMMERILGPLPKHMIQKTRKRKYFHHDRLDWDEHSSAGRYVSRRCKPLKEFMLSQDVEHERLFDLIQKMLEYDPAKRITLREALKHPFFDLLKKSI

[5] = biological target: T2, Receptor-type tyrosine-protein kinase FLT3 (Homo sapiens, UniProt P36888)
T2 sequence (P36888 whole entry): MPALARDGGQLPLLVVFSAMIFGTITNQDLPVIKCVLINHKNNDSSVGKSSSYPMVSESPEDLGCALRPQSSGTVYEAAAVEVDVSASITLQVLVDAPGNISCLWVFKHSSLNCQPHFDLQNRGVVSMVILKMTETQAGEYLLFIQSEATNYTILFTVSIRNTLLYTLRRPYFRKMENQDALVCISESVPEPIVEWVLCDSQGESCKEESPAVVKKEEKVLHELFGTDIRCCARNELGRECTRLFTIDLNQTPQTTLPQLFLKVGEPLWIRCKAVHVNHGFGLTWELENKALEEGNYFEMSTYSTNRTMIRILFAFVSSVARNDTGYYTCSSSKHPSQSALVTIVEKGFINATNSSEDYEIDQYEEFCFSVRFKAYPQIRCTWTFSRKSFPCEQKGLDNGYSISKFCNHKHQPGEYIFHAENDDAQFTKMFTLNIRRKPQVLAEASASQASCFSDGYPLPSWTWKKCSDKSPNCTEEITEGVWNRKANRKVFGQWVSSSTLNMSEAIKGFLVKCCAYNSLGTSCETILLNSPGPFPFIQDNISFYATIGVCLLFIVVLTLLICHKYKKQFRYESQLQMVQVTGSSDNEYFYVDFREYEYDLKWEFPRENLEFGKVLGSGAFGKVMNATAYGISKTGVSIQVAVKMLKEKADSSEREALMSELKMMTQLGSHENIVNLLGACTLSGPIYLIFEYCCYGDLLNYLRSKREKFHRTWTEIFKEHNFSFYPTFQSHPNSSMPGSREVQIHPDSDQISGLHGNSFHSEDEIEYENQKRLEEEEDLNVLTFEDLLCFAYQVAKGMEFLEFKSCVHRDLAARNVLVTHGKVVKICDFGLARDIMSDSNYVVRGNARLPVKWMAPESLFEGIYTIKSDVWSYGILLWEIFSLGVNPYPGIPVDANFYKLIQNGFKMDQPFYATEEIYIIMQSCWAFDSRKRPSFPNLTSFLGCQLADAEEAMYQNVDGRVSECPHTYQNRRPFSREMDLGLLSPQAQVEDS

[6] = biological target: T3, Heme oxygenase 2 (Homo sapiens, UniProt P30519)
T3 sequence (P30519 whole entry): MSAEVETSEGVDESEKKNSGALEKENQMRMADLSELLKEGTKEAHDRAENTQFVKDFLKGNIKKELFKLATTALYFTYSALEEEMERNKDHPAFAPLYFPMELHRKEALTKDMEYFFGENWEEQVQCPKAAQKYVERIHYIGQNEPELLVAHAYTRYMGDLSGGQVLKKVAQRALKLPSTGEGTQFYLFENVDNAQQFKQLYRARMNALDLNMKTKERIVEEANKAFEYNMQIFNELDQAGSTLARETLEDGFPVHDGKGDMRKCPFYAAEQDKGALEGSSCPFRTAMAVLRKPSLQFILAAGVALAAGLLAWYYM

[7] = biological target: Dual specificity mitogen-activated protein kinase kinase 2 (Homo sapiens, UniProt P36507)
Sequence of Dual specificity mitogen-activated protein kinase kinase 2 (P36507 whole entry): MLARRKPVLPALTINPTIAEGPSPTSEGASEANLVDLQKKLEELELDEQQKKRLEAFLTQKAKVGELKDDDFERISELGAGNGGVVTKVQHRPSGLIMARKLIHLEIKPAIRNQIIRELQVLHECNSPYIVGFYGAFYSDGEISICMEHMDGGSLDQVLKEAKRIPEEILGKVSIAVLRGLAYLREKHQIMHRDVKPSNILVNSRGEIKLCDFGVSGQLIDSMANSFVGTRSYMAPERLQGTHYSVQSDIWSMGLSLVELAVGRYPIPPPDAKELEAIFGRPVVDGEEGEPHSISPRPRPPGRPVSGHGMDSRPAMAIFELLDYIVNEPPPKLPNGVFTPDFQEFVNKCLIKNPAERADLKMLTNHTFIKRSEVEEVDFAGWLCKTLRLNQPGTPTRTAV

[8] = biological target: Mitogen-activated protein kinase 11 (Homo sapiens, UniProt Q15759)
Sequence of Mitogen-activated protein kinase 11 (Q15759 whole entry): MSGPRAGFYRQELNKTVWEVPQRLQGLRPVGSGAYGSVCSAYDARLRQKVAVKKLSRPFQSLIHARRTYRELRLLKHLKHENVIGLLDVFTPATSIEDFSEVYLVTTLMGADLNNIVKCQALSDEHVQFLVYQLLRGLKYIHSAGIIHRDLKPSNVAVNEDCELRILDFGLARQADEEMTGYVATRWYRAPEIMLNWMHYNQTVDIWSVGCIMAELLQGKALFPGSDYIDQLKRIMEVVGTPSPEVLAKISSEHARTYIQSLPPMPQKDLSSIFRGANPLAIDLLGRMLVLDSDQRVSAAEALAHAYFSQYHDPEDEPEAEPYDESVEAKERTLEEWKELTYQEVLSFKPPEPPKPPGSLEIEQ

[9] = biological target: cAMP-dependent protein kinase catalytic subunit alpha (Homo sapiens, UniProt P17612)
[10] = biological target: Protein kinase C delta type (Homo sapiens, UniProt Q05655)
Sequence of Protein kinase C delta type (Q05655 whole entry): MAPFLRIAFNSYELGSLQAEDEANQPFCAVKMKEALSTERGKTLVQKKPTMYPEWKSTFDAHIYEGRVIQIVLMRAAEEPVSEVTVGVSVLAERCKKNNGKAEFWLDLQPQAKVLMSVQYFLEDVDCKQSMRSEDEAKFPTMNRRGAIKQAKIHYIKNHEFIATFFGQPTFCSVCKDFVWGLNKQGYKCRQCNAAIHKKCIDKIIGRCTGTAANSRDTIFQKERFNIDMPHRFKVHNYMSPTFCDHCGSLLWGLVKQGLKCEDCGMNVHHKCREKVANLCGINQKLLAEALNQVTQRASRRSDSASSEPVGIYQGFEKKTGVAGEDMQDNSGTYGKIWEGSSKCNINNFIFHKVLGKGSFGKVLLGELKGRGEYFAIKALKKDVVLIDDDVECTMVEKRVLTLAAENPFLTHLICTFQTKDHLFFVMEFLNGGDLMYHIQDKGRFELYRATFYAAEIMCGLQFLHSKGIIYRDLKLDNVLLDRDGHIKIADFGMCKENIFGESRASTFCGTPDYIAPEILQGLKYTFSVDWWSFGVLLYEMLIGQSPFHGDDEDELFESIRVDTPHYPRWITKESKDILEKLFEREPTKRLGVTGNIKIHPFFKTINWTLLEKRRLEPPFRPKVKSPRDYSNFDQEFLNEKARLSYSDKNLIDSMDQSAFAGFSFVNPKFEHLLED

[11] = biological target: T4, STE20-related kinase adapter protein alpha (Homo sapiens, UniProt Q7RTN6)
T4 sequence (Q7RTN6 whole entry): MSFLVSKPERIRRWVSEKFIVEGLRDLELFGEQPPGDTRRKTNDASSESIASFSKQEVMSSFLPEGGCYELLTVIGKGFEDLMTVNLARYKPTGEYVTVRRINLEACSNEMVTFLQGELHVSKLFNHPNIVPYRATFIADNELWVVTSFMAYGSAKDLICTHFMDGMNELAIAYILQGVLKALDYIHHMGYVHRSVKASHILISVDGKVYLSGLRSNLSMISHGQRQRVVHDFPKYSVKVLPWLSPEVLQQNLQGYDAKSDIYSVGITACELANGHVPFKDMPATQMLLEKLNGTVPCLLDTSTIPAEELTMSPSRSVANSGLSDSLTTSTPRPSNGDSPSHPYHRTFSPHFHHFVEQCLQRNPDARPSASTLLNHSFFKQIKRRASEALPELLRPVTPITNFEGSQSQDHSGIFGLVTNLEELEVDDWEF

[12] = biological target: Elongation factor Tu, mitochondrial (Homo sapiens, UniProt P49411)

Compound	Kd [1]	Kd [2]	Kd [3]	Kd [4]	Kd [5]	Kd [6]	Kd [7]	Kd [8]	Kd [9]	Kd [10]	Kd [11]	Kd [12]
CC(C)Nc1cc(-c2c[nH]c(C(=O)N[C@H](CO)c3cccc(Cl)c3)c2)c(Cl)cn1 [ULIXERTINIB]	> 30 µM (inactive)	> 30 µM (inactive)	> 30 µM (inactive)	> 30 µM (inactive)	> 30 µM (inactive)	> 30 µM (inactive)	> 30 µM (inactive)	> 30 µM (inactive)	> 30 µM (inactive)	> 30 µM (inactive)	> 30 µM (inactive)	> 30 µM (inactive)
CCCS(=O)(=O)Nc1ccc(F)c(C(=O)c2c[nH]c3ncc(-c4ccc(Cl)cc4)cc23)c1F [VEMURAFENIB]	> 30 µM (inactive)	> 30 µM (inactive)	> 30 µM (inactive)	> 30 µM (inactive)	> 30 µM (inactive)	> 30 µM (inactive)	> 30 µM (inactive)	> 30 µM (inactive)	> 30 µM (inactive)	> 30 µM (inactive)	> 30 µM (inactive)	> 30 µM (inactive)
CCn1c(=O)c(-c2cc[nH]n2)cc2c(C)nc(N)nc21 [VOXTALISIB]	> 30 µM (inactive)	> 30 µM (inactive)	> 30 µM (inactive)	> 30 µM (inactive)	> 30 µM (inactive)	> 30 µM (inactive)	> 30 µM (inactive)	> 30 µM (inactive)	> 30 µM (inactive)	> 30 µM (inactive)	> 30 µM (inactive)	> 30 µM (inactive)

Now from value to compound:

Kd [1]	Kd [2]	Kd [3]	Kd [4]	Kd [5]	Kd [6]	Kd [7]	Kd [8]	Kd [9]	Kd [10]	Kd [11]	Kd [12]	Compound
> 30 µM (inactive)	> 30 µM (inactive)	> 30 µM (inactive)	> 30 µM (inactive)	> 30 µM (inactive)	> 30 µM (inactive)	> 30 µM (inactive)	> 30 µM (inactive)	> 30 µM (inactive)	> 30 µM (inactive)	> 30 µM (inactive)	> 30 µM (inactive)	CC[C@@H]1C(=O)N(C)c2cnc(Nc3ccc(C(=O)N[C@H]4CC[C@H](N5CCN(CC6CC6)CC5)CC4)cc3OC)nc2N1C(C)C [VOLASERTIB]
> 30 µM (inactive)	> 30 µM (inactive)	> 30 µM (inactive)	> 30 µM (inactive)	12.5 µM (active)	> 30 µM (inactive)	> 30 µM (inactive)	> 30 µM (inactive)	> 30 µM (inactive)	> 30 µM (inactive)	> 30 µM (inactive)	> 30 µM (inactive)	O=C(Nc1ccc(-c2ccnc(Nc3ccc(N4CCOCC4)cc3)n2)cc1)C1CCCN1 (stereo not given) [XL-019]
